Experimental data as given in US20200024278A1, “COMPOSITION COMPRISING ANTIBIOTIC COMPOUND AND AN HETEROCYCLIC COMPOUND AND THEIR USE IN PREVENTING OR TREATING BACTERIAL INFECTIONS” (MUTABILIS, priority 2016, published 2020).

Key:
Assay in all cases: MIC, broth microdilution (CLSI), substance alone or ATB combined with compound at 4 or 8 μg/mL
KPN BAA-1898 = format: cell-based, K. pneumoniae; conditions: Klebsiella pneumoniae, BAA1898; substance alone; KPN BAA-1898; read-out: MIC
In short: (§1)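 Per CLSI-M7-A7, MICs are determined in cation-adjusted Mueller-Hinton broth with a final inoculum of 5·10^5 CFU/mL. Plates incubate 16-20 h at 35° C in air and are read by eye. Fosfomycin assays carry 25 μg/ml glucose-6-phosphate.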

KPN UFR42 = format: cell-based, K. pneumoniae; conditions: Klebsiella pneumoniae; substance alone; KPN UFR42; read-out: MIC
In short: as §1

ECO 190317 = format: cell-based, E. coli; conditions: Escherichia coli; substance alone; ECO 190317; read-out: MIC
In short: as §1

ECO UFR39 = format: cell-based, E. coli; conditions: Escherichia coli; substance alone; ECO UFR39; read-out: MIC
In short: as §1

PAE 105250 = format: cell-based, P. aeruginosa; conditions: PAE 105250; for MIC ATB combined with compound: compound @4 μg/ml
In short: as §1

PAE UFR48 = format: cell-based, P. aeruginosa; conditions: PAE UFR48; for MIC ATB combined with compound: compound @4 μg/ml
In short: as §1

PAE UFR90 = format: cell-based, P. aeruginosa; conditions: PAE UFR90; for MIC ATB combined with compound: compound @4 μg/ml
In short: as §1

SAU 29213 = format: cell-based, S. aureus; conditions: for MIC ATB combined with compound: compound @4 μg/ml, SAU 29213
In short: as §1

ABA UFR160 = format: cell-based, A. baumannii; conditions: Acinetobacter baumannii, substance alone, read-out: MIC
Description: (§2) Compounds of the present invention were assessed against genotyped bacterial strains alone or in combination with an antibacterial. In the assays, MICs of said compounds or combination of antibiotics with fixed concentrations of said compounds (4 or 8 μg/mL) were determined by the broth microdilution method according to the Clinical Laboratory Standards Institute (CLSI-M7-A7). Briefly, compounds alone according to the invention were prepared in DMSO and spotted (2 μL each) on sterile polystyrene plates (Corning, 3788). Combinations of compounds and antibiotics dilutions were prepared in DMSO and spotted (1 μL each) on sterile polystyrene plates (Corning, 3788). Log phase bacterial suspensions were adjusted to a final density of 5·10^5 CFU/mL in cation-adjusted Mueller-Hinton broth (ca-MHB; Becton-Dickinson and Company) and added to each well (98 μL). Assays including Fosfomycin were supplemented with 25 μg/ml of Glucose-6-phosphate. Microplates were incubated for 16-20 h at 35° C. in ambient air. The MIC of the compounds was defined as the lowest concentration of said compounds that prevented bacterial growth as read by visual inspection. The MIC of ATB at each compound concentration was defined as the lowest concentration of ATB that prevented bacterial growth as read by visual inspection.

ABA UFR151 = format: cell-based, A. baumannii; conditions: Acinetobacter baumannii, substance alone, read-out: MIC
Description: as §2

ECL P99 = format: cell-based, E. cloacae; conditions: Enterobacter cloacae; substance alone; ECL P99; read-out: MIC
In short: as §1

SPN 49619 = format: cell-based, S. pneumoniae; conditions: SPN 49619; for MIC ATB combined with compound: compound @4 μg/ml
In short: as §1

[1] = Pseudomonas aeruginosa, substance alone, read-out: MIC

SMILES: NCCON=C1C[C@@H](C(N)=O)N2C[C@@H]1N(OS(=O)(=O)[O-])C2=O.[Na+] [Example 2, sodium and 2,2,2-trifluoroacetate [(2S,5S)-4-(2-ammonium-ethoxyimino)-2-carbamoyl-7-oxo-1,6-diazabicyclo[3.2.1]octan-6-yl] sulfate]
- MIC (KPN BAA-1898): > 32 µg/mL
- MIC (KPN UFR42): > 32 µg/mL
- MIC (ECO 190317): 4 µg/mL
- MIC (ECO UFR39): 4 µg/mL
- MIC ATB combined with compound (PAE 105250; ATB ATM): 8 µg/mL
- MIC ATB combined with compound (PAE 105250; ATB FEP): 4 µg/mL
- MIC ATB combined with compound (PAE 105250; ATB FOS): >128 µg/mL
- MIC ATB combined with compound (PAE 105250; ATB MEM): 2 µg/mL
- MIC ATB combined with compound (PAE 105250; ATB PIP): >32 µg/mL
- MIC (PAE 105250; [1]): > 32 µg/mL
- MIC ATB combined with compound (PAE UFR48; ATB ATM): 8 µg/mL
- MIC ATB combined with compound (PAE UFR48; ATB FEP): 32 µg/mL
- MIC ATB combined with compound (PAE UFR48; ATB FOS): 16 µg/mL
- MIC ATB combined with compound (PAE UFR48; ATB MEM): 4 µg/mL
- MIC ATB combined with compound (PAE UFR48; ATB PIP): 128 µg/mL
- MIC (PAE UFR48; [1]): 64 µg/mL
- MIC ATB combined with compound (PAE UFR90; ATB ATM): 16 µg/mL
- MIC ATB combined with compound (PAE UFR90; ATB FEP): 8 µg/mL
- MIC ATB combined with compound (PAE UFR90; ATB FOS): 4 µg/mL
- MIC ATB combined with compound (PAE UFR90; ATB MEM): 1 µg/mL
- MIC ATB combined with compound (PAE UFR90; ATB PIP): >32 µg/mL
- MIC (PAE UFR90; [1]): > 128 µg/mL
- MIC ATB combined with compound (SAU 29213; ATB ATM): >32 µg/mL
- MIC ATB combined with compound (SAU 29213; ATB FEP): 4 µg/mL
- MIC ATB combined with compound (SAU 29213; ATB FOS): 0.5 µg/mL
- MIC ATB combined with compound (SAU 29213; ATB MEM): 0.125 µg/mL
- MIC ATB combined with compound (SAU 29213; ATB PIP): 1 µg/mL
- MIC (SAU 29213; Staphylococcus aureus, substance alone, SAU 29213 (MSSA 29213), read-out: MIC): > 32 µg/mL
- MIC (ABA UFR160): > 32 µg/mL
- MIC (ABA UFR151): > 32 µg/mL
- MIC (ECL P99): 16 µg/mL
- MIC ATB combined with compound (SPN 49619; ATB ATM): >32 µg/mL
- MIC ATB combined with compound (SPN 49619; ATB FEP): 0.063 µg/mL
- MIC ATB combined with compound (SPN 49619; ATB FOS): 16 µg/mL
- MIC ATB combined with compound (SPN 49619; ATB MEM): 0.063 µg/mL
- MIC ATB combined with compound (SPN 49619; ATB PIP): 0.5 µg/mL
- MIC (SPN 49619; Streptococcus pneumoniae, substance alone, read-out: MIC): > 32 µg/mL
